Reference: patent publication US20250228879A1, “METHOD AND COMPOSITION FOR CONTROLLING ACNE USING RHAMNOLIPIDS” (Stepan Company, priority 2022, published 2025)
Marks after values point to notes of the source that are not given here.

Columns and labels:
[1] = tested on: Cutibacterium acnes (ATCC #6919); assay: Time-dependency comparative testing, flow cytometry viability (Example 6); assay type: cell-based
Protocol: A study was conducted to compare the time-dependent efficacy of a rhamnolipid mixture of the present technology (Example 6 Composition), a commercially available rhamnolipid product (Comparative Composition), and salicylic acid against Cutibacterium acnes (ATCC #6919). […] The Comparative Composition comprised a mixture of rhamnolipids having a mono-rhamnolipid: di-rhamnolipid ratio of about 4:96 Test samples were prepared by diluting the rhamnolipids and the salicylic acid in sterile water. […] The concentrations of salicylic acid actives in the test samples were 0.03 wt %, 0.1 wt %, and 0.3 wt %. Prior to initiation of the study, samples were sufficiently pre-reduced to remove oxygen by using an indirect atmospheric sequestering of oxygen using hydrogen reaction over palladium catalyst. […] The sample aliquots were neutralized by dilution in an oxygen-reducing buffer containing the flow cytometry dyes, SYTO 9 and Propidium Iodide. Samples were analyzed using flow cytometry where cells were characterized by morphology and viability in comparison to a deionized water control.

[2] = water at 25° C.; cited from earlier work
C. acnes = assay: Labskin efficacy of rhamnolipids compared to salicylic acid and benzoyl peroxide (Example 5); assay type: cell-based, Cutibacterium acnes
Protocol: A study was conducted to compare the efficacy of the rhamnolipid mixture of the present technology with salicylic acid and benzoyl peroxide, two common over-the-counter anti-acne actives. The samples containing salicylic acid and benzoyl peroxide were additionally mixed using a tip sonicator to ensure complete dissolving or adequeate distribution of the active.
The skin analog substrate (Labskin) was prepared as described in Example 4. The C. acnes microorganism was cultured as described in Example 4, and each Labskin unit was inoculated as described in Example 4. The Labskin units were incubated at 37° C. for 24 hours, and after 24 hours, were treated with 11 microliters of control (dPBS), vehicle, or test item. All Labskin units were then incubated at 37° C. for 24 hours, after which biopsy samples of 8 mm in diameter were aseptically removed from the center of each Labskin unit and viable microbial numbers were assayed by recovery on appropriate culture medium.
Technical replicate counts obtained from selective solid media were averaged and used to calculate the colony forming units per square cm (CFU cm^−2). The enumeration of C. acnes for the control, vehicle, and test samples is shown graphically in FIG. 4.
The Log10 difference between the dPBS control and the vehicle and test samples was calculated as described in Example 4, and the Logio difference results are shown graphically in FIG. 5.

C. acnes ATCC 6919 = assay: Efficacy against C. acnes, aqueous test samples (Example 1); assay type: cell-based, Cutibacterium acnes; conditions: Tested Conc. 0.3%, pH 2.7
Protocol: A study was conducted to determine the antimicrobial activity of a rhamnolipid mixture of the present technology alone against C. acnes, available from American Type Culture Collection (ATCC), Manassas, VA as ATCC 6919. Test samples were prepared by mixing 6.0% by weight of the rhamnolipid mixture into an aqueous base. Two samples were prepared, one sample using a rhamnolipid mixture processed by a non-solvent purification process, and the other sample using a rhamnolipid mixture processed by a solvent extraction process. The rhamnolipid mixtures in each sample comprise a weight ratio of mono-rhamnolipids to di-rhamnolipids in the range of 43:57 to 45:55.

[3] = 15 min Exposure, Tested Conc. 0.03%
[4] = 15 min Exposure, Tested Conc. 0.10%
[5] = 15 min Exposure, Tested Conc. 0.30%
[6] = 60 min Exposure, Tested Conc. 0.03%
[7] = 60 min Exposure, Tested Conc. 0.10%
[8] = 60 min Exposure, Tested Conc. 0.30%

Structure (SMILES): O=C(O)c1ccccc1O [Salicylic acid in DI Water, salicylic acid]
- Log10 cells/mL Reduction [1, 3]: 0.10 Log10 cells/mL
- Percent Reduction [1, 3]: 20.6%
- Log10 cells/mL Reduction [1, 4]: 0.10 Log10 cells/mL
- Percent Reduction [1, 4]: 20.6%
- Log10 cells/mL Reduction [1, 5]: 0.57 Log10 cells/mL
- Percent Reduction [1, 5]: 73.2%
- Log10 cells/mL Reduction [1, 6]: 0.35 Log10 cells/mL
- Percent Reduction [1, 6]: 55.2%
- Log10 cells/mL Reduction [1, 7]: 1.14 Log10 cells/mL
- Percent Reduction [1, 7]: 92.8%
- Log10 cells/mL Reduction [1, 8]: >2.30 Log10 cells/mL
- Percent Reduction [1, 8]: >99.5%
- solubility limit in water [2]: 0.3% *
- Enumeration of C. acnes compared with dPBS control (FIG. 4) (C. acnes; 0.5% w/w in 20% w/w Tween in dPBS, Labskin, 24 hours): slight decrease in the average amount of C. acnes
- Log10 difference of C. acnes vs dPBS control (FIG. 5) (C. acnes; 0.5% w/w salicylic acid in 20% w/w Tween in dPBS): moderate decrease in C. acnes recovered
- Log10 difference of C. acnes vs dPBS control (FIG. 5) (C. acnes; 2% w/w salicylic acid in 20% w/w Tween in dPBS): noticeable decrease in the recovered population of C. acnes
- Reduction % (C. acnes ATCC 6919; 1 h Exposure): >99.997%
- Reduction Log10 CFU/mL (C. acnes ATCC 6919; 1 h Exposure): >4.6 Log10 CFU/mL
- Reduction % (C. acnes ATCC 6919; 24 h Exposure): >99.995%
- Reduction Log10 CFU/mL (C. acnes ATCC 6919; 24 h Exposure): >4.3 Log10 CFU/mL

Structure (SMILES): O=C(OOC(=O)c1ccccc1)c1ccccc1 [benzoyl peroxide]
- Log10 difference of C. acnes vs dPBS control (FIG. 5) (C. acnes; benzoyl peroxide alone (5% and 2.5% w/w) in 20% w/w Tween in dPBS): significant decrease in the recovered population of C. acnes
